Results reported in publication PMC12194305, “Assessing Bioconcentration and Biotransformation of BDE-47 In Vitro: The Relevance of Bioavailable and Intracellular Concentrations” (Journal of Xenobiotics, 2025).
Read-outs that look alike come from different tables or passages of the source.

Legend:
ZFL cells = test: Cell exposure for bioaccumulation: Ccell, Cmedium and in vitro BCF (ratio and toxicokinetic fit); format: cell-based, zebrafish; conditions: for BCFexp, 24 h / BCFexp, 48 h / BCFexp, 72 h: Ccell,exp/Cmedium
Description: A total of 2 × 10^6 ZFL cells were plated in P100 glass dishes and incubated for 24 h under standard culture conditions. Subsequently, the culture medium was replaced with a contaminated medium, which, according to the cell viability assay, maintained viability above 70% by the end of the exposure period (Section 2.3). Cells were exposed to 1.8 and 2.6 mg⋅L^−1 for 24, 48 and 72 h, in two independent experiments. Parallel experiments were conducted under identical conditions to assess losses: one set included cells without contaminated medium, and another consisted of contaminated medium without cells (“no cells”). The obtained pellets were collected from all exposure time, dried under a gentle stream of nitrogen and weighed on a precision analytical balance (±0.00001 g). Finally, the dried cell pellets and their corresponding medium collected at all exposure times, including the starting medium (“t = 0 h”), were stored at −20 °C until analysis.
Extraction of BDE-47 and its metabolites was performed simultaneously for each of the samples, cells, and exposure media. Finally, 500 μL of exposure medium was extracted with 500 μL of hexane: MTBE mixture (1:1) shaken vigorously with a vortex for 30 s. For cells, the pellet obtained (~5 mg) was treated with same solvents but assisted with an ultrasound probe for 1 min at 30% of amplitude and a pulse on/off, with 2 s/5 s for cell samples. The internal standards (IS) BDE-99 and TCS had been previously added. The mixture was centrifuged for 10 min at 10,000 rpm. The organic phase was separated, and the extraction step was repeated. Remaining extracts were evaporated to dryness under a gentle stream of nitrogen and reconstituted in 200 μL isooctane. A total of 80 μL of the volume obtained was derivatized with 20 μL of MTBSTFA at 70 °C for 30 min in the oven and injected into GC-μECD-MS for the OH-BDE quantification. PBDEs and MeO-BDEs were determined by direct injection of the remaining volume of isooctane extracts into the GC-µECD-MS, because PBDEs are not stable after the derivatization process. Due to the difference in concentration in the samples of the metabolites and BDE-47, a double determination was performed and diluted with isooctane for the detection of the latter, so that it was interpolated on the same calibration curve.
The GC–MS-µECD system was used for the separation and determination of BDE-47 and its metabolites. The MS was used for the identification and the µECD for their quantification. Both detectors operate simultaneously, thanks to the use of a flow splitter placed at the end of the chromatographic column. Sample (1 μL) were injected in splitless mode at 280 °C. Helium was used as carrier gas at a constant pressure of 22 psi. Column temperature was programmed to increase from 130 °C (1 min) to 222 °C (1 min) at a rate of 90 °C·min^−1, then to 245 °C (1 min) at 1 °C·min^−1 and finally to 280 °C (8 min) at 45 °C·min^−1. The μECD temperature was set at 320 °C and nitrogen was used as makeup gas (30 mL·min^−1). The flow ratio of the splitter was 1:1, thanks to the helium input and the restrictor length of each detector, according to the manual supplied by Agilent Technologies. m/z values for the SIM program are collected in Table S1.
The first quantitative estimation of BCF was carried out according to the definition of BCF in the official OECD 305 guideline; that is, the ratio between the chemical concentration in the cells (Ccell) and the chemical concentration of the surrounding medium (Cmedium). As explained earlier, Ccell can be determined experimentally (Ccell,exp) or by MBM (Ccell,MBM). Both these terms can be related to the experimentally determined concentration in the medium (Cmedium), the free concentration experimentally determined (Cfree,exp) or the free concentration estimated using MBM (Cfree,MBM). […]

[1] = system: zebrafish eleutheroembryos; set-up: method as in PMID 36705440; conditions: cited from earlier work
[2] = Cnominal 1.8 mg·L^−1, first-order toxicokinetic fit k1/k2

Q: What does the source list for `Brc1ccc(Oc2ccc(Br)cc2Br)c(Br)c1` [BDE-47, 2,2′,4,4′-tetrabromodiphenyl ether]?
A: Recovery in the mass balance (ZFL cells; 24 h, 1.8 mg·L^−1, BDE-47 plus metabolites in cells, medium and losses): 77%; Recovery in the mass balance (ZFL cells; 24 h, 2.6 mg·L^−1): 79%; Recovery in the mass balance (ZFL cells; 48 h, 1.8 mg·L^−1): 70%; Recovery in the mass balance (ZFL cells; 48 h, 2.6 mg·L^−1): 82%; Recovery in the mass balance (ZFL cells; 72 h, 1.8 mg·L^−1): 74%; Recovery in the mass balance (ZFL cells; 72 h, 2.6 mg·L^−1): 97%; average decrease of Cmedium over time from nominal concentration (ZFL cells; Cnominal 1.8 mg·L^−1): 79%; BCFexp, 24 h (ZFL cells; Cnominal 1.8 mg·L^−1): 50 L/kg; BCFexp, 48 h (ZFL cells; Cnominal 1.8 mg·L^−1): 83 L/kg; BCFexp, 72 h (ZFL cells; Cnominal 1.8 mg·L^−1): 100 L/kg; BCFk Ccell exp/Cfree,exp (ZFL cells; [2]): 74,300 L·kg^−1; BCFk Ccell exp/Cw (ZFL cells; [2]): 30 L/kg; average decrease of Cmedium over time from nominal concentration (ZFL cells; Cnominal 2.6 mg·L^−1): 33%; BCFexp, 24 h (ZFL cells; Cnominal 2.6 mg·L^−1): 51 L/kg; BCFexp, 48 h (ZFL cells; Cnominal 2.6 mg·L^−1): 55 L/kg; BCFexp, 72 h (ZFL cells; Cnominal 2.6 mg·L^−1): 80 L/kg; BCFk Ccell exp/Cfree,exp (ZFL cells; Cnominal 2.6 mg·L^−1, first-order toxicokinetic fit k1/k2): 63,435 L·kg^−1; BCF48 h ([1]; 1 µg·L^−1, zebrafish larvae): 16,392 L·kg^−1; BCFk ([1]; 1 µg·L^−1, zebrafish larvae): 36,363 L·kg^−1; BCF48 h ([1]; 10 µg·L^−1, zebrafish larvae): 4106 L/kg; BCFk ([1]; 10 µg·L^−1, zebrafish larvae): 7295 L/kg
